Measured values as given in patent US20080255076A1, “Steroid-Derived Pharmaceutical Compositions” (JadoLabs GmbH, priority 2004, published 2008).

Columns and labels:
[1] = test system: HIV-1 strain NL4-3; experiment: HIV assay; type: cell-based; settings: compared to solvent; for inhibition of HIV infection: 30 μM, HeLa TZM cells; for inhibition at 30 µM: Human immunodeficiency virus 1, NL43, HeLa TZM cells, read-out: inhibition of HIV infection
[2] = test system: Raft liposomes; experiment: Disrafter-Liposome Raftophile Assay (D-LRA); settings: for disrafting activity in the DLRA (in words): significance above 25% or below −25%; for % disrafting in the DLRA with perylene: indicator perylene 2 μM; for % disrafting in the DLRA with perylene / % disrafting in the DLRA with GS-96: test compound 100 μM final, negative = raft augmentation; for % disrafting in the DLRA: indicator not stated; for % disrafting in the DLRA with GS-96: indicator GS-96 0.2 μM
[3] = test system: Wild type SV40 viruses; experiment: SV40 infection assay; type: cell-based, Simian Virus 40; settings: HeLa cells
[4] = test system: vesicular stomatitis virus (VSV); type: cell-based
[5] = test system: Influenza virus; experiment: Virus budding assay (influenza assay); type: cell-based; settings: MDCK cells; test compound 1 h; below 100% = inhibition
[6] = test system: PR8 virus; experiment: microbe, parasite or virus in culture; type: cell-based, influenza virus
[7] = test system: Rat basophilic leukemia (RBL-2H3) cells; experiment: Degranulation assay (β-hexosaminidase release); type: cell-based; settings: 100 μM, compared to solvent vehicle
Protocol: The assay measures release of β-hexosaminidase as a marker of release of various preformed pharmacological agents in response to clustering of the high affinity IgE receptor (FcεRI) by means of multivalent antigen-IgE complexes. Rat basophilic leukemia (RBL-2H3) cells, a commonly used model of mast cell degranulation, are sensitized with anti-DNP specific IgE and challenged with multivalent DNP-BSA. The release of β-hexosaminidase into the supernatant is measured by enzymatic conversion of the fluorogenic substrate 4-methylumbelliferyl-N-acetyl-[…] to N-acetyl-β-D-glucosamine and highly fluorescent methylumbelliferone and quantified by fluorescence detection in a Tecan Safire™ plate reader. • 2. Materials […]
Two to 24 hours before incubation with test compounds the medium was removed and cells were sensitized with 0.4 μg/ml anti-DNP IgE in fresh medium. […] Hexosaminidase activity in supernatants and lysates was measured by incubating 25 μl aliquots with 100 μl MUG substrate solution in a 96-well plate at 37° C. for 30 min. […] Fluorescence was measured in a Tecan Safire™ plate reader at 365 nm excitation and 440 nm emission settings.
Each compound is tested in duplicates in at least three independent experiments. β-hexosaminidase release is calculated after subtraction of unspecific release (release without addition of antigen) using the formula: […]

[8] = Betapolyomavirus macacae, M-HeLa, 30 μM, compared to solvent
[9] = unidentified influenza virus, PR8, MDCK, read-out: inhibition of PR8 virus replication

Compound | disrafting activity in the DLRA (in words) [2] | % disrafting in the DLRA with perylene [2] | inhibitory effect on viral infection in the VSV counterscreen (in words) [4] | % disrafting in the DLRA with GS-96 [2] | other results
CCCCCCCCCCCC=C1CC[C@H]2[C@@H]3CCC4CC(=O)CC[C@]4(C)[C@H]3CC[C@]12C (relative stereo) [Compound 10ak, cis-Δ^17(20)-Dodecylidene-3-androstanone] | high negative or positive values |  |  |  | inhibition of HIV infection [1]: 23%
C/C=C1/CC[C@H]2[C@@H]3CCc4cc(OC(C)=O)ccc4[C@H]3CC[C@]12C (relative stereo) [Compound 10db, cis-Δ^17(20)-19-Norpregna-1,3,5(10),17(20)-tetraen-3-yl acetate] | high negative or positive values | −536% | no inhibitory effect on viral infection at all |  | inhibition of HIV infection [1]: 27%; inhibition of SV40 infection ([3]; 30 μM, compared to solvent): 52.2%
C[C@]12CC[C@@H](O)C[C@@H]1CC[C@@H]1[C@@H]2CC[C@]2(C)C(=O)CC[C@@H]12 [Androsterone, reference compound] | do not show significant disrafting activity |  |  |  | % disrafting in the DLRA [2]: 0%
CO[C@@H]1CC[C@@]2(C)[C@@H](CC[C@H]3[C@@H]4CCC[C@@]4(C)CC[C@@H]32)C1 [Compound 10ac, 3alpha-Methoxy-5alpha-androstane] | high negative or positive values | about +68% | no inhibitory effect on viral infection at all |  | inhibition at 30 µM [3, 8]: 12.9%
C/C=C1/CCC2C3CCC4C[C@@H](O)CC[C@]4(C)C3CC[C@]12C (stereo partly drawn) [Compound 10ad, cis-Δ^17(20)-5alpha-Pregnen-3beta-ol] | high negative or positive values | about −105% | no inhibitory effect on viral infection at all | about −66% | inhibition at 30 µM [3, 8]: 15.2%; virus budding, percentage with respect to an untreated control [5]: 61%; inhibition at 20 µM [6, 9]: 59.6%
C/C=C1/CCC2C3CCC4CC(=O)CC[C@]4(C)C3CC[C@]12C (stereo partly drawn) [Compound 10ae, cis-Δ^17(20)-5alpha-Pregnen-3-one] | high negative or positive values | about −43% |  | ~−20% | virus budding, percentage with respect to an untreated control [5]: about 140%; inhibition at 50 µM [6, 9]: 32.9%
CC[C@H]1CC[C@H]2[C@@H]3CC[C@H]4C[C@@H](O)CC[C@]4(C)[C@H]3CC[C@]12C [Compound 10af, 5alpha-Pregnan-3beta-ol] | high negative or positive values | −217% | no inhibitory effect on viral infection at all | −74.7% | inhibition at 30 µM [3, 8]: 18.9%; inhibition at 50 µM [6, 9]: 27.9%
CC[C@H]1CCC2C3CCC4C[C@H](N=[N+]=[N-])CC[C@]4(C)C3CC[C@@]21C (stereo partly drawn) [Compound 10ag, 5alpha-Pregnan-3alpha-azide] | high negative or positive values | −71.8% |  | −187% | 
C/C=C1/CCC2C3CCc4cc(O)ccc4C3CC[C@]12C (stereo partly drawn) [Compound 10da, cis-Δ^17(20)-19-Norpregna-1,3,5(10),17(20)-tetraen-3-ol] | high negative or positive values | −729% | no inhibitory effect on viral infection at all |  | inhibition at 30 µM [1]: 18%; inhibition at 15 µM ([3]; Betapolyomavirus macacae, M-HeLa, 15 μM): 29.6%
C/C=C1/CCC2C3CCc4cc(OC)ccc4C3CC[C@]12C (stereo partly drawn) [Compound 10dc, cis-Δ^17(20)-19-Norpregna-1,3,5(10),17(20)-tetraen-3-yl methyl ether] | high negative or positive values | −139% |  |  | inhibition at 30 µM [1]: 38%
CC(C)CCC[C@@H](C)[C@H]1CC[C@H]2[C@@H]3CC=C4C[C@@H](O)CC[C@]4(C)[C@H]3CC[C@]12C [cholesterol, reference compound] | do not show significant disrafting activity |  |  |  | % disrafting in the DLRA [2]: 0%
C[C@]12CC[C@H](O)C[C@@H]1CC[C@@H]1[C@@H]2CC[C@]2(C)C(=O)CC[C@@H]12 [epiandrosterone, reference compound] | do not show significant disrafting activity |  |  |  | % disrafting in the DLRA [2]: 0%
cis-Δ^17(20)-Dodecylidene-3alpha-aminoandrostan [Compound 10al] | high negative or positive values | −216% |  |  | inhibition of release of β-hexosaminidase [7]: 61%; inhibition of PR8 virus replication ([6]; 12.5 μM, MDCK cells): 54%
